Read-outs that look alike come from different tables or passages of the source.
Legend:
[1] = test system: HCT116 cells; experiment: MTT assay; format: cell-based; settings: Homo sapiens, HCT116 cells, 72 hours
Method in brief: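 Read-out: MTT (0.5 mg/ml final, 4 h) after solubilization in 50% DMF/20% SDS, pH 4.7, with OD translated into cell number via the line's growth curve. Compound treatment lasted 72 h at 37 °C in 5% CO2, starting a day after plating.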

[2] = test system: acetylated histone H-4 in T24 human bladder cancer cells; experiment: Histone H4 acetylation in whole cells by immunoblots; format: cell-based; settings: 16 h
Description: T24 human bladder cancer cells growing in culture were incubated with HDAC inhibitors for 16 h. […] of total histone protein was loaded onto SDS/PAGE and transferred to nitrocellulose membranes. Membranes were probed with polyclonal antibodies specific for acetylated histone H-4 (Upstate Biotech Inc.), followed by horse radish peroxidase conjugated secondary antibodies (Sigma). Enhanced Chemiluminescence (ECL) (Amersham) detection was performed using Kodak films (Eastman Kodak). Acetylated H-4 signal was quantified by densitometry.

[3] = target: T1, cloned recombinant human HDAC-1 (Homo sapiens, UniProt Q13547); experiment: Human HDAC-1 enzyme inhibition, Assay 1 ([3H]-acetylated histone substrate, scintillation counting); format: biochemical
T1 construct: made in house; host or cells: Baculovirus insect cell expression system
Method in brief: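 Activity read as [3H]-acetic acid liberated from labeled substrate, ethyl acetate-extracted and scintillation-counted. Compounds preincubated 30 min at 4° C. with baculovirus-expressed, purified human HDAC-1. Dose-response curves give IC50 as concentration producing fifty percent of maximal inhibition.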

[4] = T-24, Table 5c, read-out: H4Ac (T24) EC50
[5] = T-24, Table 5E, read-out: H4 Ac (T24) EC50
[6] = T-24, Table 5F, read-out: H4 Ac (T24) EC50
[7] = Table 5F, read-out: Human HDAC-1 IC50
[8] = Table 5d, read-out: HDAC-1 IC50
[9] = Table 5b, read-out: Human HDAC-1 IC50

T1 sequence (Q13547 whole entry): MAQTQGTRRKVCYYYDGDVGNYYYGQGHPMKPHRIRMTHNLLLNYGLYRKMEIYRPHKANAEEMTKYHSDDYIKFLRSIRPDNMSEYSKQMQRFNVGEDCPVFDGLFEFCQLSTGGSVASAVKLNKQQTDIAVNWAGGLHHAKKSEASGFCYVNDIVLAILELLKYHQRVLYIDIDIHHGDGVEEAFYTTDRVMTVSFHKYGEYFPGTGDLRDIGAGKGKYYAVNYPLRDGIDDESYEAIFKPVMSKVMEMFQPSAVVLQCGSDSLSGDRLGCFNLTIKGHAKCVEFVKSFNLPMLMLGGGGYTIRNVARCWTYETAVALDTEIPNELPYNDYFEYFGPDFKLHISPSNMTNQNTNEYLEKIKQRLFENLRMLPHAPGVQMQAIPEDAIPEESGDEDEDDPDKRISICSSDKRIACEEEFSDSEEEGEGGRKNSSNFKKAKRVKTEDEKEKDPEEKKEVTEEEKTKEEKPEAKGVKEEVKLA

| SMILES | IC50 ([1]; HCT-116, 72 h, Table 5F) [µM] | IC50 ([1]; HCT-116, Table 5d) [µM] | IC50 [3, 7] [µM] | also measured |
| --- | --- | --- | --- | --- |
| Nc1ccccc1NC(=O)/C=C/c1ccc(NCc2ccccc2)nc1 [Cpd 93, N-(2-aminophenyl)-3-(6-benzylamino-pyridin-3-yl)-acrylamide] |  |  |  | IC50 ([1]; HCT-116, 72 h, Table 5c): 1 µM; EC50 [2, 4]: 5 µM |
| Nc1ccccc1NC(=O)/C=C/c1ccc(NCc2ccncc2)nc1 [Cpd 91] |  |  |  | IC50 ([1]; HCT-116, 72 h, Table 5c): 7 µM; EC50 [2, 4]: 5 µM |
| COc1cc(NCc2ccc(C(=O)Nc3ccccc3N)cc2)cc(OC)c1OC [Cpd 164] |  |  |  | IC50 ([1]; HCT-116, 72 h, Table 5E): 2 µM; EC50 [2, 5]: 3 µM |
| Nc1ccccc1NC(=O)/C=C/c1ccc(NCCCc2ccccc2)nc1 [Cpd 94, N-(2-aminophenyl)-3-[6-(3-phenyl-propylamino)-pyridin-3-yl]-acrylamide] |  |  |  | IC50 ([1]; HCT-116, 72 h, Table 5c): 2 µM; EC50 [2, 4]: 5 µM |
| Nc1ccccc1NC(=O)/C=C/c1cnc(NCc2ccc([N+](=O)[O-])cc2)nc1 [Cpd 113, N-(2-amino-phenyl)-3-[2-(4-nitro-benzylamino)-pyrimidin-5-yl]-acrylamide] |  |  |  | IC50 ([1]; HCT-116, 72 h, Table 5c): 0.3 µM; EC50 [2, 4]: 5 µM |
| COc1ccc(NCc2ccc(C(=O)Nc3ccccc3O)cc2)cc1OC [Cpd 572, N-(2-hydroxy-phenyl)-4-[(3,4-Dimethoxy-phenylamino)-methyl]-benzamide] | 5 |  |  | EC50 [2, 6]: 5 µM |
| COc1cc(CNc2ccc(/C=C/C(=O)Nc3ccccc3N)cn2)cc(OC)c1OC [Cpd 116, N-(2-aminophenyl)-3-[6-(3,4,5-trimethoxy-benzylamino)-pyridin-3-yl]-acrylamide] |  |  |  | IC50 ([1]; HCT-116, 72 h, Table 5c): 2 µM; EC50 [2, 4]: 5 µM |
| COc1cc(NCc2ccc(/C=C/C(=O)Nc3ccccc3N)cn2)cc(OC)c1OC [Cpd 512, N-(2-Amino-phenyl)-3-{6-[(3,4,5-trimethoxy-phenylamino)-methyl]-pyridin-3-yl}-acrylamide] |  | 3 |  | EC50 ([2]; T-24, Table 5d, read-out: H4Ac(T24) EC50): 5 µM |
| CN(C)c1ccc(CNc2ccc(/C=C/C(=O)Nc3ccccc3N)cn2)cc1 [Cpd 96, N-(2-aminophenyl)-3-[6-(4-dimethylamino-benzylamino)-pyridin-3-yl]-acrylamide] |  |  |  | IC50 ([1]; HCT-116, 72 h, Table 5c): 3 µM; EC50 [2, 4]: 25 µM |
| COc1ccc(-c2ccnc(NCc3ccc(C(=O)Nc4ccccc4N)cc3)n2)cn1 [Cpd 578, N-(2-Amino-phenyl)-4-{[4-(6-methoxy-pyridin-3-yl)-pyrimidin-2-ylamino]-methyl}-benzamide] | 0.1 |  |  | EC50 [2, 6]: 1 µM |
| COc1cc(N(C)Cc2ccc(/C=C/C(=O)Nc3ccccc3N)cc2)cc(OC)c1OC [Cpd 108] |  |  |  | IC50 ([1]; HCT-116, 72 h, Table 5c): 5 µM; EC50 [2, 4]: 5 µM |
| COc1cc(CNc2ccc(C(=O)Nc3ccccc3N)cn2)cc(OC)c1OC [Cpd 176] |  |  |  | IC50 ([1]; HCT-116, 72 h, Table 5E): 1 µM; EC50 [2, 5]: 3 µM |
| CCN1C(=O)C(Cc2ccc(C(=O)Nc3ccccc3N)cc2)Oc2ccccc21 (stereo not shown) [compound 269, N-(2-Amino-phenyl)-4-(4-ethyl-3-oxo-3,4-dihydro-2H-benzo[1,4]oxazin-2-ylmethyl)-benzamide] | 4 |  | 9 |  |
| COc1cc(Nc2ccc(/C=C/C(=O)Nc3ccccc3N)cc2)cc(OC)c1OC [Cpd 481] |  | 10 |  | IC50 [3, 8]: 22 µM |
| COc1cc(C2CCC(c3ccc(C(=O)Nc4ccccc4N)cc3)O2)cc(OC)c1OC (stereo not shown) [compound 290, N-(2-Amino-phenyl)-4-[5-(3,4,5-trimethoxy-phenyl)-tetrahydro-furan-2-yl]-benzamide] | 3 |  | 11 |  |
| CNc1nc2cc(NCc3ccc(C(=O)Nc4ccccc4N)cc3)ccc2s1 [Cpd 456, N-(2-Amino-phenyl)-4-[(2-methylamino-benzothiazol-5-ylamino)-methyl]-benzamide] | 0.4 |  | 3 |  |
| COc1ccc(NCc2ccc(/C=C/C(=O)Nc3ccccc3N)cc2)cc1CNc1cc(OC)c(OC)c(OC)c1 [Cpd 563, N-(2-Amino-phenyl)-3-[4-([4-methoxy-3-[(3,4,5-trimethoxy-phenylamino)-methyl]-phenylamino}-methyl)-phenyl]-acrylamide] |  | 6 |  | IC50 [3, 8]: 24 µM |
| Cc1nc(Cc2ccc(C(=O)Nc3ccccc3N)cc2)no1 [compound 284, N-(2-Amino-phenyl)-4-(5-methyl-[1,2,4]oxadiazol-3-ylmethyl)-benzamide] | 5 |  | 3 |  |

| SMILES | IC50 ([1]; HCT-116, 72 h, Table 5F) [µM] | IC50 ([1]; HCT-116, Table 5d) [µM] | IC50 [3, 7] [µM] | also measured |
| --- | --- | --- | --- | --- |
| Cc1nc(NCc2ccc(C(=O)Nc3ccccc3N)cc2)nc(NC2Cc3ccccc3C2)n1 [Cpd 218] |  |  |  | IC50 [3, 9]: 0.1 µM; IC50 ([1]; HCT-116, 72 h, Table 5b): 0.5 µM |
| Nc1nc(CCc2ccc(C(=O)Nc3ccccc3N)cc2)nc(N2CCCCC2)n1 [Cpd 224] |  |  |  | IC50 [3, 9]: 5 µM; IC50 ([1]; HCT-116, 72 h, Table 5b): 3 µM |
| COc1cc(N2C(=O)OCC2c2ccc(C(=O)Nc3ccccc3N)cc2)cc(OC)c1OC (stereo not shown) [compound 296, N-(2-Amino-phenyl)-4-[2-oxo-3-(3,4,5-trimethoxy-phenyl)-oxazolidin-4-yl]-benzamide] | 7 |  | 20 |  |
| Nc1ccccc1NC(=O)c1ccc(CSc2nc3cc(OCCN4CCOCC4)ccc3[nH]2)cc1 [Cpd 236] | 6 |  | 5 |  |
| Nc1ccccc1NC(=O)c1ccc(-c2noc(CN3CCCCC3)n2)cc1 [Cpd 354, N-(2-Amino-phenyl)-4-(5-piperidin-1-ylmethyl-[1,2,4]oxadiazol-3-yl)-benzamide] | 5 |  | 15 |  |
| Nc1ccccc1NC(=O)/C=C/c1ccc(C(=O)Nc2ccccc2N)cc1 [Cpd 520, N-(2-Amino-phenyl)-4-[2-(2-amino-phenylcarbamoyl)-vinyl]-benzamide] |  | 3 |  | IC50 [3, 8]: 5 µM |
| Cc1ccc(CNc2ccc(/C=C/C(=O)Nc3ccccc3N)cn2)cc1 [Cpd 117, N-(2-Amino-phenyl)-3-[6-(4-methyl-benzylamino)-pyridin-3-yl]-acrylamide] |  |  |  | IC50 ([3]; Table 5c, read-out: Human HDAC-1 IC50): 7 µM; IC50 ([1]; HCT-116, 72 h, Table 5c): 3 µM |
| COc1cccc(CCNc2nc(NCc3ccc(C(=O)Nc4ccccc4N)cc3)nc(NC3CC3)n2)c1 [Cpd 479] |  |  |  | IC50 [3, 9]: 0.4 µM; IC50 ([1]; HCT-116, 72 h, Table 5b): 0.6 µM |
| Cc1nc(-c2ccc(C(=O)Nc3ccccc3N)cc2)no1 [Cpd 353, N-(2-Amino-phenyl)-4-(5-methyl-[1,2,4]oxadiazol-3-yl)-benzamide] | 10 |  | 3 |  |
| COc1cc(NCc2ccc(C(=O)Nc3ccccc3N)cc2)c(C(=O)O)cc1OC [Cpd 406, 2-[4-(2-Amino-phenylcarbamoyl)-benzylamino]-4,5-dimethoxy-benzoic acid] | 11 |  | 3 |  |
| COc1cc(NCc2ccc(/C=C/C(=O)Nc3cccc(O)c3N)cc2)cc(OC)c1OC [Cpd 561] |  | > 25 |  | IC50 [3, 8]: > 25 µM |
| Nc1ccccc1NC(=O)c1ccc(C(=O)Nc2ccccc2N)nc1 [Cpd 380, Pyridine-2,5-dicarboxylic acid bis-[(2-amino-phenyl)-amide]] | 8 |  | 6 |  |
| COc1cc(/C=C/C(=O)Nc2ccccc2N)ccc1CNc1cc(OC)c(OC)c(OC)c1 [Cpd 484] |  | 12 |  | IC50 [3, 8]: 20 µM |
| COc1cc(NCc2ccc(/C=C/C(=O)Nc3ccccc3N)cc2[N+](=O)[O-])cc(OC)c1OC [Cpd 567] |  | 3 |  | IC50 [3, 8]: 13 µM |
| COc1cc(NCc2ccc(/C=C/C(=O)Nc3ccccc3N)cc2N)cc(OC)c1OC [Cpd 568] |  | 39 |  | IC50 [3, 8]: > 25 µM |
| Nc1ccccc1NC(=O)c1ccc(Cn2cnc3cc(F)c(F)cc3c2=O)cc1 [Cpd 339, N-(2-Amino-phenyl)-4-(6,7-difluoro-4-oxo-4H-quinazolin-3-ylmethyl)-benzamide] | 3 |  | 4 |  |
| Cc1cc(C)n(-c2ccc(C(=O)Nc3ccccc3N)cc2)n1 [compound 286, N-(2-Amino-phenyl)-4-(3,5-dimethyl-pyrazol-1-yl)-benzamide] | 2 |  | 5 |  |

Further lines, with some results ahead:

| IC50 ([1]; HCT-116, 72 h, Table 5F) [µM] | IC50 ([1]; HCT-116, Table 5d) [µM] | IC50 [3, 7] [µM] | SMILES | also measured |
| --- | --- | --- | --- | --- |
|  | 10 |  | Nc1ccccc1NC(=O)/C=C/c1ccc(CNc2cccc(Br)c2)cc1 [Cpd 546, N-(2-Amino-phenyl)-3-{4-[(3-bromo-phenylamino)-methyl]-phenyl}-acrylamide] | IC50 [3, 8]: 3 µM |
|  | 6 |  | COc1ccc(-c2ccc(/C=C/C(=O)Nc3ccccc3N)cn2)cc1OC [Cpd 569] | IC50 [3, 8]: 18 µM |
| 6 |  | 5 | COc1ccc(CNc2ccc(C3CC3C(=O)Nc3ccccc3N)cn2)cc1 (stereo not shown) [Cpd 576] |  |
|  | > 25 |  | Nc1ccccc1NC(=O)/C=C/c1ccc(CNc2ccc(-c3ccccc3)cc2)cc1 [Cpd 511, N-(2-Amino-phenyl)-3-[4-(biphenyl-4-ylaminomethyl)-phenyl]-acrylamide] | IC50 [3, 8]: 4 µM |
|  | 12 |  | Nc1ccccc1NC(=O)/C=C/c1ccc(CNc2cccc(S(N)(=O)=O)c2)cc1 [Cpd 538, N-(2-Amino-phenyl)-3-{4-[(3-sulfamoyl-phenylamino)-methyl]-phenyl}-acrylamide] | IC50 [3, 8]: 4 µM |
|  | 5 |  | COc1ccc(NCc2ccc(/C=C/C(=O)Nc3ccccc3N)cc2)c(OC)c1OC [Cpd 562, N-(2-Amino-phenyl)-3-[4-[(2,3,4-trimethoxy-phenylamino)-methyl]-phenyl}-acrylamide] | IC50 [3, 8]: 5 µM |

Source: patent US7868204B2, “Inhibitors of histone deacetylase” (MethylGene Inc., priority 2001, dated 2011)
